How the values were obtained:
Test in all cases: relative viability (nuclei count vs DMSO), 5 days (fraction); higher = more cells survive
[1] = compound: Cc1ccc(F)c(NC(=O)Nc2ccc(-c3cccc4[nH]nc(N)c34)cc2)c1 [Linifanib] + CC(=O)Nc1cccc(-n2c(=O)n(C3CC3)c(=O)c3c(Nc4ccc(I)cc4F)n(C)c(=O)c(C)c32)c1 [Trametinib] (partner 0.02 µM)
Method in brief: (§1)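 After 5 days of treatment, lung cancer cells in 1536-well plates were fixed and stained in a single step (final 0.05% Triton X-100, 1% formaldehyde, 1 ug/ml Hoechst) and their nuclei counted on 4× images. Treatment had been applied by pin tool the day after seeding as one drug alone or as a fixed anchor-drug dose with five library-drug doses (not always all listed) in √10 steps. Relative viability is the nuclei count of treated wells divided by that of vehicle wells, and values are medians of duplicate plates.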

[2] = compound: Cc1ccc(F)c(NC(=O)Nc2ccc(-c3cccc4[nH]nc(N)c34)cc2)c1 [Linifanib] + CC(C)C[C@H](NC(=O)[C@H](Cc1ccccc1)NC(=O)c1cnccn1)B(O)O [Bortezomib] (partner 0.002 µM)
Method in brief: as §1

[3] = compound: Cc1ccc(F)c(NC(=O)Nc2ccc(-c3cccc4[nH]nc(N)c34)cc2)c1 [Linifanib] + COc1cc2c(Oc3ccc(NC(=O)C4(C(=O)Nc5ccc(F)cc5)CC4)cc3F)ccnc2cc1OCCCN1CCOCC1 [Foretinib] (partner 0.25 µM)
Method in brief: as §1

[4] = compound: Cc1ccc(F)c(NC(=O)Nc2ccc(-c3cccc4[nH]nc(N)c34)cc2)c1 [Linifanib] + COc1cccc2cc(-c3nc([C@H]4CC[C@H](C(=O)O)CC4)n4ncnc(N)c34)[nH]c12 [OSI-027] (partner 0.5 µM)
Method in brief: as §1

[5] = compound: Cc1ccc(F)c(NC(=O)Nc2ccc(-c3cccc4[nH]nc(N)c34)cc2)c1 [Linifanib] + CS(=O)(=O)CCNCc1ccc(-c2ccc3ncnc(Nc4ccc(OCc5cccc(F)c5)c(Cl)c4)c3c2)o1 [Lapatinib] (partner 2 µM)
Method in brief: as §1

[6] = compound: Cc1ccc(F)c(NC(=O)Nc2ccc(-c3cccc4[nH]nc(N)c34)cc2)c1 [Linifanib] + Cc1nc(NC(=O)N2CCC[C@H]2C(N)=O)sc1-c1ccnc(C(C)(C)C(F)(F)F)c1 [Alpelisib] (partner 2 µM)
Method in brief: as §1

| Cell Line | relative viability ([1]; first compound 0.03162 µM) | relative viability ([1]; first compound 0.1 µM) | relative viability ([1]; first compound 0.3162 µM) | relative viability ([2]; first compound 0.03162 µM) | relative viability ([2]; first compound 0.1 µM) | relative viability ([2]; first compound 0.3162 µM) | relative viability ([3]; first compound 0.03162 µM) | relative viability ([3]; first compound 0.1 µM) | relative viability ([3]; first compound 0.3162 µM) | relative viability ([4]; first compound 0.03162 µM) | relative viability ([4]; first compound 0.1 µM) | relative viability ([4]; first compound 0.3162 µM) | relative viability ([5]; first compound 0.03162 µM) | relative viability ([5]; first compound 0.1 µM) | relative viability ([5]; first compound 0.3162 µM) | relative viability ([6]; first compound 0.03162 µM) | relative viability ([6]; first compound 0.1 µM) | relative viability ([6]; first compound 0.3162 µM) |
| --- | --- | --- | --- | --- | --- | --- | --- | --- | --- | --- | --- | --- | --- | --- | --- | --- | --- | --- |
| SW 1573 | 0.505 | 0.674 | 0.563 | 0.972 | 1.04 | 1.08 | 0.897 | 1.21 | 0.843 | 0.648 | 0.665 | 0.625 | 1.27 | 1.27 | 1.15 | 0.609 | 0.914 | 0.657 |
| NCI-H596 | 0.813 | 0.894 | 0.749 | 0.899 | 1.06 | 1.08 | 0.981 | 0.783 | 0.907 | 0.625 | 0.879 | 0.71 | 1.05 | 1.08 | 1.01 | 0.544 | 0.517 | 0.431 |
| NCI-H2342 | 0.848 | 0.744 | 0.878 |  |  |  | 1.18 | 1.2 | 1.15 | 0.638 | 0.654 | 0.624 |  |  |  |  |  |  |
| NCI-H358 | 0.121 | 0.121 | 0.137 |  |  |  | 0.825 | 0.794 | 0.717 | 0.836 | 1.06 | 0.748 | 0.531 | 0.543 | 0.433 | 0.897 | 0.879 | 0.795 |
| ABC-1 |  |  |  | 0.25 | 0.343 | 0.285 | 1.02 | 1.08 | 0.921 | 0.506 | 0.433 | 0.381 | 1.15 | 1.13 | 0.93 | 0.928 | 1.05 | 0.927 |
| EMC-BAC-2 | 1.01 | 0.993 | 0.875 | 1.11 | 1.13 | 1.12 | 1.02 | 1.05 | 1.03 | 0.439 | 0.361 | 0.375 | 0.901 | 0.992 | 0.844 | 0.778 | 0.792 | 0.683 |
| NCI-H1666 | 0.851 | 0.878 | 0.842 | 0.892 | 0.756 | 0.643 | 0.923 | 0.969 | 0.998 | 0.882 | 0.903 | 0.784 | 0.792 | 0.649 | 0.705 | 0.951 | 1.15 | 1.1 |
| NCI-H661 | 0.577 | 0.591 | 0.55 | 0.88 | 0.915 | 0.645 | 1.07 | 0.978 | 0.973 | 0.726 | 0.714 | 0.647 | 0.483 | 0.449 | 0.42 | 0.647 | 0.787 | 0.515 |
| NCI-H2126 | 0.584 | 0.571 | 0.547 | 1.05 | 1.1 | 1.14 | 1.22 | 1.06 | 1.2 | 0.742 | 0.747 | 0.665 | 0.792 | 0.788 | 0.779 | 0.791 | 0.793 | 0.765 |
| NCI-H1651 | 0.896 | 0.787 | 0.787 | 0.967 | 0.934 | 0.895 | 0.774 | 1.04 | 0.66 | 0.624 | 0.8 | 0.829 | 0.981 | 0.88 | 0.817 | 0.883 | 0.838 | 0.996 |
| H3255 | 0.629 | 0.698 | 0.554 | 0.809 | 0.781 | 0.728 | 1 | 0.946 | 0.721 | 0.58 | 0.606 | 0.583 | 0.246 | 0.508 | 0.242 | 0.752 | 0.787 | 0.706 |
| HOP-62 | 0.412 | 0.439 | 0.355 | 0.617 | 0.969 | 0.728 | 1.14 | 1.12 | 1.02 | 0.982 | 0.874 | 0.767 | 1.02 | 0.739 | 1.02 | 1.38 | 1.03 | 1.07 |
| NCI-H441 | 0.457 | 0.518 | 0.409 | 0.496 | 0.43 | 0.371 | 1.08 | 0.945 | 1.27 | 0.588 | 0.767 | 0.607 |  |  |  | 0.649 | 1.05 | 0.735 |
| SK-MES-1 | 0.528 | 0.568 | 0.507 |  |  |  | 0.986 | 1 | 0.827 | 0.625 | 0.613 | 0.595 | 0.456 | 0.534 | 0.384 | 0.883 | 0.852 | 0.885 |
| EPLC-272H | 0.254 | 0.292 | 0.274 | 1.21 | 1.04 | 0.785 | 0.643 | 0.657 | 0.556 | 0.26 | 0.327 | 0.29 | 0.956 | 0.913 | 0.814 | 0.75 | 1.02 | 0.909 |
| NCI-H1915 | 0.279 | 0.339 | 0.297 | 1.01 | 0.937 | 0.98 | 1.08 | 1.15 | 1.04 | 0.668 | 0.688 | 0.616 | 1.08 | 0.925 | 0.89 | 1.08 | 1.08 | 1.06 |
| NCI-H520 | 0.673 | 0.803 | 0.731 | 0.773 | 1.07 | 0.497 | 0.741 | 1.01 | 0.708 | 0.271 | 0.313 | 0.3 | 1 | 1.03 | 0.895 | 0.789 | 0.801 | 0.794 |
| NCI-H2228 | 0.511 | 0.719 | 0.587 | 0.815 | 1.32 | 0.959 | 1.08 | 0.889 | 0.81 | 0.647 | 0.747 | 0.663 | 0.998 | 1.3 | 0.922 | 0.821 | 0.827 | 0.843 |

Reference: the supplement of paper PMC10307832
